Consider 2 compounds from patent US8791132B2, “Compounds and methods for treatment of hypertension” (Medivation Technologies, Inc., priority 2011, dated 2014).

Data set [1] can be described thus: Solubility in MeOH (chiral preparative HPLC data). It counts as physicochemical. To be noted: sample for chiral preparative HPLC. As for the experimental part: For chiral separations, samples were dissolved in MeOH and EtOH according to the solubility of sample and filtered through 0.22μ. PTFE filters. The columns used were […]-AD; 20*250 mm, 10μ and […]-ODH; 20*250 mm, 5μ. A flow rate of 12 mL/min-17 mL/min was used according to the resolution. Alkanes such as n-Pentane, Hexane and Heptane (40%-95%) and alcohols such as EtOH, Isopropyl alcohol and t-Butanol (5%-60%) were used as mobile phase. In some cases alcohol combinations i.e. (EtOH+MeOH), (EtOH+IPA), (IPA+MeOH), (t-Butanol+MeOH), (t-Butanol+EtOH) were used instead of a single alcohol. Diethyl amine (up to 0.3%) was used as modifier in the mobile phase.
Column: Chiralcel OD-H. Column ID: 20*250 mm, 5μ. Mobile Phase:Hexane: (EtOH:MeOH 80:20)−95:5. Flow rate: 15 mL/min. Solubility: 30 mg/mL in MeOH.
Column: Chiral PAK-AD-H. Column ID: 20*250 mm, 5μ. Mobile Phase:Hexane (0.2% diethylamine):Isopropanol−93:7. Flow rate: 15 mL/min. Solubility: 40 mg/mL in MeOH.

For data set [2], the target named is T1, human recombinant adrenergic α2B receptor (Homo sapiens, UniProt P18089).
T1 construct: expressed in transfected cells; host or cells: CHO-K1
T1 sequence (P18089 1-450): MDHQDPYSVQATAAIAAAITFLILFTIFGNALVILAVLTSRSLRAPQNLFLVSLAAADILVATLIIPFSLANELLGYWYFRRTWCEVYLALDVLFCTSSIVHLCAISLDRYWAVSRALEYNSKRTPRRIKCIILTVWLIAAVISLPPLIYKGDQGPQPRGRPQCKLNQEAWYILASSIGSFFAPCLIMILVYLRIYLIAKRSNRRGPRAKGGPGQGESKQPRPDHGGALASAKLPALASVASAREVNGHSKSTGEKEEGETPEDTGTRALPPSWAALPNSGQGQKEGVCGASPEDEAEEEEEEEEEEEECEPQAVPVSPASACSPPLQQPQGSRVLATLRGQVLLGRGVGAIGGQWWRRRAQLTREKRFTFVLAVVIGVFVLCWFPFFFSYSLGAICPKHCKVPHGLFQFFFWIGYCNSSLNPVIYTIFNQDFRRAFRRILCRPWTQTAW
Put plainly: Radioligand binding, adrenergic α2B ([3H]Rauwolscine). To be noted: compound at 0.03 μM; [3H]Rauwolscine; repeat datapoints each shown; 0.03 µM. In a few lines: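 Readout: percent inhibition of specific [3H]Rauwolscine binding, measured by filtration and counting. Conditions: CHO-K1 cell-expressed receptor, 2.5 nM radioligand, 60 min, 25° C, Tris-HCl pH 7.4 buffer with MgCl2, EDTA, BSA. Non-specific binding: 10 μM Prazosin.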

The target in data set [3] is T2, human recombinant adrenergic α2A receptor (Homo sapiens, UniProt P08913).
T2 construct: expressed in transfected cells; host or cells: insect Sf9 cells
T2 sequence (P08913 1-465): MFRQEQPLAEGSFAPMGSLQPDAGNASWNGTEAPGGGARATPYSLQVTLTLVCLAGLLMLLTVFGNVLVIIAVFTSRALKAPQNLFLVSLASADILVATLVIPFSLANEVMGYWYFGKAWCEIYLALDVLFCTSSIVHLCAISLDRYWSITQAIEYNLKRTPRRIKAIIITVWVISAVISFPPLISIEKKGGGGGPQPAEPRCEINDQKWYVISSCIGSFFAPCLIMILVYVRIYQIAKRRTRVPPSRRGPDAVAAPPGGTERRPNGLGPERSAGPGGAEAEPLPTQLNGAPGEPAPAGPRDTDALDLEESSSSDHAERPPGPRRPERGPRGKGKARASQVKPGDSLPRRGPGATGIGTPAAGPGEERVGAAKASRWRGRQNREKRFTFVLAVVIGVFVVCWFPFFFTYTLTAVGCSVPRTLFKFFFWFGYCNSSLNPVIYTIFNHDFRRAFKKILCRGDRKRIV
Put plainly: Radioligand binding, adrenergic α2A ([3H]MK-912). The note with it: compound at 0.1 μM; [3H]MK-912; repeat datapoints each shown; 0.1 µM. In a few lines: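 Displacement of 1 nM [3H]MK-912 from receptor produced in insect Sf9 cells was measured after 60 min at 25 °C. Readout: percent inhibition of specific binding.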

The target in data set [4] is T3, rat adrenergic α1B receptor (Rattus norvegicus, UniProt P15823).
T3 construct: rat adrenergic α1B receptor obtained from Wistar Rat liver; from tissue; host or cells: Wistar rat liver
T3 sequence (P15823 1-515): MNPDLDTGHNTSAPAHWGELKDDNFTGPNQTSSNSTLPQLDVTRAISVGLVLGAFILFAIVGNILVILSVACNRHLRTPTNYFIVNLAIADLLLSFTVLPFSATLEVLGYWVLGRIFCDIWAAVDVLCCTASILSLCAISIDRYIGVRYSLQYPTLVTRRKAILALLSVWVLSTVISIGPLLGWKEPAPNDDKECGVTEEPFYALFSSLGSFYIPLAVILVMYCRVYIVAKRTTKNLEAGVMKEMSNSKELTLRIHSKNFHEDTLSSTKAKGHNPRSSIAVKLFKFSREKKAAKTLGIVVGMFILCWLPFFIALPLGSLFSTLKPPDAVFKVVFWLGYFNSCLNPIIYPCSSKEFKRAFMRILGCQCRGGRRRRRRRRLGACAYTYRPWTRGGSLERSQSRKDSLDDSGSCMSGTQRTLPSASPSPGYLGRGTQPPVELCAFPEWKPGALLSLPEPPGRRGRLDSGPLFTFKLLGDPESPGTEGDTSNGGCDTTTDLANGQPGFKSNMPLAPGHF
As to the kind of experiment: Radioligand binding, adrenergic α1B ([3H]Prazosin). The note with it: compound at 0.1 μM; [3H]Prazosin; repeat datapoints each shown; 0.1 µM. The method in brief: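 Rat α1B receptor from Wistar rat liver was incubated with 0.25 nM [3H]prazosin for 60 min at 25 °C in 50 mM Tris-HCl, pH 7.4, 0.5 mM EDTA. Non-specific binding was defined with 10 μM phentolamine. Bound radioligand was measured by filtration and counting, reported as percent inhibition of specific binding.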

One may read the Solubility as the concentration that dissolves in the medium under given conditions. In the case of `Cc1cnc2c(c1)c1c(n2CC(C)(O)c2ccc(F)cc2)CCN(C)C1` (single isomer, unassigned) [138a], the Solubility in data set [1] is 30 mg/mL. For the same compound, the “Percentage inhibition of ligand binding, Adrenergic α2B (0.03 μM)” value in data set [2] turned out to be 63%. The “Percentage inhibition of ligand binding, Adrenergic α2A (0.1 μM)” value in data set [3] is recorded as −8%. Also, the “Percentage inhibition of ligand binding, Adrenergic α1B (0.1 μM)” value in data set [4] came to 61%.
On the same counts, the results for `Cc1cnc2c(c1)c1c(n2CC(C)(O)c2ccc(F)cc2)CCN(C)C1` (single isomer, unassigned) [138b] are 30 mg/mL, 25%, 4% and 22%.
